Eleven compounds from patent US7968572B2, “Nitrogen-containing heterocyclic compound and pharmaceutical application thereof” (Ono Pharmaceuticals Co., Ltd., priority 2005, dated 2011) can be followed below.

The target of data set [1] is T1, recombinant human p38α MAP kinase (Homo sapiens, UniProt Q16539).
T1 construct: purchased Upstate Biotechnology #14-251
The data set is described as follows: Study on p38α MAP kinase inhibitory activity (ATF2 phosphorylation, Alpha Screen). In kind it is biochemical. The conditions noted are these: biotinylated ATF2 substrate, 30° C. for 30 minutes. As for the experimental part:
Study on p38α MAP Kinase Inhibitory Activity
Using activating transcription factor-2 (hereinafter abbreviated to ATF2) which is a substrate for p38α MAP kinase, the inhibitory action of the compounds of the present invention was investigated on the phosphorylation by a recombinant human p38α MAP kinase.
A kinase buffer (25 mM Tris-HCl (pH 7.5), 5 mM β-glycerophosphate, 2 mM dithiothreitol, 0.1 mM Na3VO4, 10 mM MgCl2) containing a recombinant human p38α MAP kinase (Upstate Biotechnology #14-251) was added to a 384-well plate (5 μL) (6.25 ng protein/well) for fluorescence measurement. After addition of a kinase buffer (5 μL) containing the compound of the present invention, the resulting mixture was incubated at room temperature for 20 minutes. A substrate mixture (5 μL) of biotinylated ATF2 of 5 μg/mL (Upstate Biotechnology #14-432), adenosine triphosphate (90 μmol/L) (Sigma #FL-AAS) and anti-phosphorylated ATF2 antibody (20-fold dilution) (Cell Signaling Technology #9221L) prepared separately was added thereto, and enzyme reaction was carried out at 30° C. for 30 minutes. After the reaction, Hepes buffer (5 μL) containing 0.25% BSA and 100 mM EDTA was added to stop the enzyme reaction. The amount of a complex of the phosphorylated ATF2 and anti-phosphorylated ATF2 antibody produced by the reaction was measured using an Alpha Screen™ Rabbit Detection kit (Packard #6760607).
The p38α MAP kinase inhibitory activity, which is the effect of the compound of the present invention, was calculated as an inhibition rate (%) according to the following equation: Inhibition rate (%)={(AC−AX)/(AC−AB)}×100
wherein AB is a measured value without addition of the enzyme;
AC is a measured value with addition of the enzyme in the absence of a test compound; and
AX is a measured value with addition of the enzyme in the presence of a test compound.
Inhibition rate of compounds with each concentration was calculated, and a value indicating 50% inhibition (IC50) was determined from the inhibition curve.

A short description of data set [2]: Evaluation of artificial lipid membrane binding using a Biacore S51 system. The conditions noted are these: for Binding Level (RU): compound 50 μM, DOPA liposomes on Sensor Chip L1, 37° C., PBS/5% DMSO (pH 7.4 or pH 6.0); for Judgment: phospholipidosis inducing activity judged from artificial lipid membrane binding. As for the experimental part: Evaluation of Artificial Lipid Membrane Binding using a Biacore S51 (Registered Trademark) System
Using an aspirator, 10 mM of 1,2-dioleoyl-sn-glycero-3-phosphate monosodium salt (hereinafter abbreviated to DOPA) chloroform solution was evaporated to be dryness, and 0.6 mL of PBS/5% dimethyl sulfoxide (hereinafter abbreviated to DMSO) was added thereto. After carrying out thorough suspension by vortex, freezing and thawing were repeated for 5 times. Liposomes were prepared using a liposome preparation device (manufactured by Avestin Inc.) and two syringes and diluted to be 0.5 mM with PBS/5% DMSO just before the immobilization.
Each compound having a final concentration in PBS/5% DMSO of 50 μM was prepared by adding 38 μL of 1× PBS to 2 μL of 10 mM DMSO solution and further adding 360 μL of 1× PBS/5% DMSO and measured.
All of the following analyses were carried out using the Biacore S51 (registered trademark) system, and the measuring conditions were set up by Biacore S51 Control Software.
The measuring temperature was set to be 37° C., and PBS/5% DMSO (pH 7.4 or pH 6.0) was used as the buffer. Series S Sensor Chip L1 was used as the sensor chip. DOPA was immobilized on one of the measuring spots on the sensor surface, and the central spot was used as the reference.
Immobilization of the liposomes was carried out for about 3 minutes at a flow rate of 10 μL/minute, and then each compound was added thereto at a flow rate of 30 μL/minute to measure the interaction. The measuring conditions are as shown in the following.
Assay buffer: PBS/5% DMSO (pH 7.4 or pH 6.0)
Measuring temperature: 37° C.
Sensor chip: Series S Sensor Chip L1
Flow rate: 10 μL/minute at the time of liposome immobilization, 30 μL/minute at the time of interaction measurement
Regeneration: 20 mM CHAPS (3-[(3-cholamidopropyl)dimethylammonio]-1-propanesulfonate), an isopropanol/50 mM aqueous solution of sodium hydroxide=40/60 (volume ratio) mixed solution (60 seconds)
The data treatment was carried out in accordance with the method of Abdiche et al. (Analytical Biochemistry, 328, 233-243 (2004)) using Biacore S51 Evaluation Software.
After correcting infinitesimal error of the concentration of DMSO contained in the sample solution, the value of binding response (RU) obtained by subtracting the value of reference was divided by the sample molecular weight. Additionally, since the thus obtained value is proportional to the capturing amount of liposome, it was divided by the capturing amount at the time of the cycling and multiplied by 10^6 to be used as the correction value (correction value=1000000×RU (compound to be tested)/molecular weight (compound to be tested) RU (liposome)).
By adding propranolol, amiodarone, desipramine, imipramine and procaine as controls, it was confirmed that variation of the binding response is within about 10 to 15%.
Compounds having a binding response value after correction of 100 or more were judged positive.
A general note: In SPR one partner is held on a chip, and binding of the other changes the refractive index at the surface.

T1 sequence (Q16539 whole entry): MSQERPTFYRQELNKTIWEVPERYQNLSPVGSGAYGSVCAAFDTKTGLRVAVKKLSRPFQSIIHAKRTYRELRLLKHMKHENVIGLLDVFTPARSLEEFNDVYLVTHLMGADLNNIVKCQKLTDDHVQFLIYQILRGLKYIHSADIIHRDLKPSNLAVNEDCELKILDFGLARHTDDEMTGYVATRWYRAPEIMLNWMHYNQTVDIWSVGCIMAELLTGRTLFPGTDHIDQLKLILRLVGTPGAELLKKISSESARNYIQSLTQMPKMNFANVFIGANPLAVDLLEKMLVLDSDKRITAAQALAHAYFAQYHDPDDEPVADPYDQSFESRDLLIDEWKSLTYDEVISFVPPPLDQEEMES

What is called IC50 is the midpoint of a concentration-inhibition curve. For the compound `C[C@@](O)(CO)c1nc(-c2ccc(F)cc2F)c(-c2ccc(=O)n(-c3c(F)cccc3F)c2)o1` [Example 211, 1-(2,6-difluorophenyl)-5-{4-(2,4-difluorophenyl)-2-[(1R)-1,2-dihydroxy-1-methylethyl]-1,3-oxazol-5-yl}-2(1H)-pyridinone], in data set [1], the IC50 is 5.6 nM. In data set [2], the “Binding Level (RU)” value is listed as 11.1 RU and the Judgment entry is given as “Negative”.

Regarding `CC(C)(O)Cc1nc(-c2ccc(F)cc2F)c(-c2ccc(=O)n(-c3c(F)cccc3F)c2)o1` [Example 220, 1-(2,6-difluorophenyl)-5-[4-(2,4-difluorophenyl)-2-(2-hydroxy-2-methylpropyl)-1,3-oxazol-5-yl]-2(1H)-pyridinone], in data set [1], the IC50 amounted to 8 nM. For the same compound, in data set [2], the “Binding Level (RU)” value stood at 15.5 RU and the Judgment result is on record as “Negative”.

For the compound `C[C@](O)(CO)c1nc(-c2ccc(=O)n(-c3c(F)cccc3F)c2)c(-c2ccc(F)cc2F)o1` [Example 167 (2), 1-(2,6-difluorophenyl)-5-{5-(2,4-difluorophenyl)-2-[(1S)-1,2-dihydroxy-1-methylethyl]-1,3-oxazol-4-yl}-2(1H)-pyridinone], the IC50 in data set [1] stood at 3.8 nM. In data set [2], the “Binding Level (RU)” value was determined as 22.2 RU and the Judgment result is “Negative”.

With `CC(C)(O)c1nc(-c2ccc(=O)n(-c3c(F)cccc3F)c2)c(-c2ccc(F)cc2F)o1` [Example 7 (21), 1-(2,6-difluorophenyl)-5-[5-(2,4-difluorophenyl)-2-(1-hydroxy-1-methylethyl)-1,3-oxazol-4-yl]-2(1H)-pyridinone], the IC50 in data set [1] was 3.5 nM. Also, in data set [2], the “Binding Level (RU)” value came to 18.3 RU and the Judgment result is on record as “Negative”.

As for `CC(C)(O)[C@@H](O)c1nc(-c2ccc(F)cc2F)c(-c2ccc(=O)n(-c3c(F)cccc3F)c2)o1` [Example 207, 1-(2,6-difluorophenyl)-5-{4-(2,4-difluorophenyl)-2-[(1R)-1,2-dihydroxy-2-methylpropyl]-1,3-oxazol-5-yl}-2(1H)-pyridinone], the IC50 in data set [1] was determined as 3.7 nM. Further, in data set [2], the “Binding Level (RU)” value amounted to 12.8 RU and the Judgment result was “Negative”.

For the compound `CC(C)(O)[C@H](O)c1nc(-c2ccc(=O)n(-c3c(F)cccc3F)c2)c(-c2ccc(F)cc2F)o1` [Example 227, 1-(2,6-difluorophenyl)-5-{5-(2,4-difluorophenyl)-2-[(1S)-1,2-dihydroxy-2-methylpropyl]-1,3-oxazol-4-yl}-2(1H)-pyridinone], the IC50 in data set [1] was determined as 3.9 nM. Besides, in data set [2], the “Binding Level (RU)” value turned out to be 22.5 RU and the Judgment entry is reported as “Negative”.

`C[C@@](O)(CO)c1nc(-c2ccc(=O)n(-c3c(F)cccc3F)c2)c(-c2ccc(F)cc2F)o1` [Example 167 (1), 1-(2,6-difluorophenyl)-5-{5-(2,4-difluorophenyl)-2-[(1R)-1,2-dihydroxy-1-methylethyl]-1,3-oxazol-4-yl}-2(1H)-pyridinone]: in data set [1], the IC50 was 4.4 nM. In data set [2], the “Binding Level (RU)” value is 19.6 RU and the Judgment result is listed as “Negative”.

With `CC(C)(O)[C@@H](O)c1nc(-c2ccc(=O)n(-c3c(F)cccc3F)c2)c(-c2ccc(F)cc2F)o1` [Example 227 (1), 1-(2,6-difluorophenyl)-5-{5-(2,4-difluorophenyl)-2-[(1R)-1,2-dihydroxy-2-methylpropyl]-1,3-oxazol-4-yl}-2(1H)-pyridinone], the IC50 in data set [1] turned out to be 4.8 nM. Besides, in data set [2], the “Binding Level (RU)” value was 21.0 RU and the Judgment entry is recorded as “Negative”.

Regarding `O=c1ccc(-c2nc(C(O)(CO)CO)oc2-c2ccc(F)cc2F)cn1-c1c(F)cccc1F` [Example 7 (39), 1-(2,6-difluorophenyl)-5-{5-(2,4-difluorophenyl)-2-[1,2-dihydroxy-1-(hydroxymethyl)ethyl]-1,3-oxazol-4-yl}-2(1H)-pyridinone], the IC50 in data set [1] worked out at 2.8 nM. In data set [2], the “Binding Level (RU)” value was 11.1 RU and the Judgment entry is given as “Negative”.

For `CC(C)(O)[C@H](O)c1nc(-c2ccc(F)cc2F)c(-c2ccc(=O)n(-c3c(F)cccc3F)c2)o1` [Example 206, 1-(2,6-difluorophenyl)-5-{4-(2,4-difluorophenyl)-2-[(1S)-1,2-dihydroxy-2-methylpropyl]-1,3-oxazol-5-yl}-2(1H)-pyridinone], the IC50 in data set [1] was determined as 3.3 nM. In data set [2], the “Binding Level (RU)” value turned out to be 14.7 RU and the Judgment entry is on record as “Negative”.

As to `O=c1ccc(-c2oc(C(O)(CO)CO)nc2-c2ccc(F)cc2F)cn1-c1c(F)cccc1F` [Example 223, 1-(2,6-difluorophenyl)-5-{4-(2,4-difluorophenyl)-2-[1,2-dihydroxy-1-(hydroxymethyl)ethyl]-1,3-oxazol-5-yl}-2(1H)-pyridinone], the IC50 in data set [1] is 3.3 nM. For the same compound, in data set [2], the “Binding Level (RU)” value was 8.7 RU and the Judgment entry is on record as “Negative”.
